Experimental data: ChEMBL document CHEMBL4418264, “2,4,5-trisubstituted thiazole compounds,preparation methods,pharmaceutical compositions and medical uses thereof” (2014)

How the values were obtained:
[1] = target: T1, Cholesteryl ester transfer protein (Homo sapiens) (UniProt P11597); test: Inhibition of CETP (unknown origin) at 500 uM incubated for 0.5 hrs by double illuminometer/fluorescence counter method relative to control
T1 sequence (whole entry): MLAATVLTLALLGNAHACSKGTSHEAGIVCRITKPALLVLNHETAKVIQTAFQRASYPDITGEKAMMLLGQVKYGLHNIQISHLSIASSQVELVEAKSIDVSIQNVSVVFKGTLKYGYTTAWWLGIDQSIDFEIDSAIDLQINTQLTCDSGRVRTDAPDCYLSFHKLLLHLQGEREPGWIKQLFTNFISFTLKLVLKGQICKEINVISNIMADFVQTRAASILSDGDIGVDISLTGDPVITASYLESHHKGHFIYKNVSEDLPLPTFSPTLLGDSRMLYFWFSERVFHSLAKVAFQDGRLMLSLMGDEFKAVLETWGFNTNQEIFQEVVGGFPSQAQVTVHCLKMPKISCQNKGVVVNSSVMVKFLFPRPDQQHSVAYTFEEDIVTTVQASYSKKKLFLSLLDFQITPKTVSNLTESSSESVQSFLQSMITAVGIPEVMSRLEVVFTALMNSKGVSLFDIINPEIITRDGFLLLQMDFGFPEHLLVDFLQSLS

[2] = target: Phospholipid transfer protein (Homo sapiens) (UniProt P55058); test: Inhibition of PLTP in plasma (unknown origin) assessed as reduction in phospholipid transfer from phospholipid liposome to HDL at 150 uM measured after 1 hr relative to control; type: cell-free
[3] = target: Phospholipid transfer protein (Homo sapiens) (UniProt P55058); test: Inhibition of PLTP in plasma (unknown origin) assessed as reduction in phospholipid transfer from phospholipid liposome to HDL at 250 uM measured after 1 hr relative to control; type: cell-free
[4] = target: Phospholipid transfer protein (Homo sapiens) (UniProt P55058); test: Inhibition of PLTP in plasma (unknown origin) assessed as reduction in phospholipid transfer from phospholipid liposome to HDL at 500 uM measured after 1 hr relative to control; type: cell-free

Chain of Phospholipid transfer protein (Homo sapiens) (P55058 whole entry): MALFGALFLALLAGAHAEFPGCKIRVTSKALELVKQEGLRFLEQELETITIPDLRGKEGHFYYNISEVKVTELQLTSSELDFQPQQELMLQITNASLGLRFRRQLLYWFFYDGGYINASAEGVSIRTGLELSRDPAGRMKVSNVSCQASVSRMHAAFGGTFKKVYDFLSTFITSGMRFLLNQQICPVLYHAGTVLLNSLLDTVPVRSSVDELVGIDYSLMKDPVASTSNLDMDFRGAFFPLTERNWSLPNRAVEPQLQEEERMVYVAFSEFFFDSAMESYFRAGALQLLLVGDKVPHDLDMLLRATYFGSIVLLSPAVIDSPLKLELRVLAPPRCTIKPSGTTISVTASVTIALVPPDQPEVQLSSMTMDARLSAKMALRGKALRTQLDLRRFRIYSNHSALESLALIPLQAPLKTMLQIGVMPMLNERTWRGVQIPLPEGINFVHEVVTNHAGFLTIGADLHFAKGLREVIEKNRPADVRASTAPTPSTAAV

inhibition [1]	inhibition [2]	inhibition [3]	inhibition [4]	Compound
71.6%	0%	–	–	COc1ccc(C(=O)Nc2nc(-c3ccc(O)cc3)c(Cc3ccccc3)s2)cc1
52.8%	–	11.5%	–	COc1ccc(-c2nc(N)sc2Cc2ccc(F)cc2)cc1
75.8%	–	24%	–	COc1ccc(-c2nc(N)sc2CCc2ccccc2)cc1
25.3%	75.7%	–	–	O=C(CCc1ccc(O)c(O)c1)Nc1nc(-c2ccc(O)cc2)c(Cc2ccccc2)s1
91.6%	–	–	61%	COc1ccc(-c2nc(N3CCOCC3)sc2Cc2ccccc2)cc1
19.4%	–	79.8%	–	O=C(Nc1nc(-c2ccc(O)cc2)c(Cc2ccccc2)s1)c1ccc(O)c(O)c1
65.4%	–	15.3%	–	CCCCc1sc(N)nc1-c1ccc(OC)cc1
79.8%	0%	–	–	COc1ccc(-c2nc(N)sc2CC2CCCCC2)cc1
0%	–	97%	–	O=C(Nc1nc(-c2ccc(O)cc2)c(CCc2ccccc2)s1)c1ccc(O)c(O)c1
74.5%	–	–	100%	COc1ccc(-c2nc(N3CCNCC3)sc2Cc2ccccc2)cc1
80.4%	0%	–	–	O=C(Nc1nc(-c2ccc(O)cc2)c(Cc2ccccc2)s1)c1ccc(Cl)cc1

The remaining lines, values behind:

Compound	inhibition [1]	inhibition [2]	inhibition [3]	inhibition [4]
O=C(Nc1nc(-c2ccccc2)c(Cc2ccc([N+](=O)[O-])cc2)s1)c1ccc(O)c(O)c1	0%	–	100%	–
O=C(Nc1nc(-c2ccc(O)cc2)c(Cc2ccccc2)s1)c1cc(O)c(O)c(O)c1	44.1%	89.4%	–	–
Cc1sc(NC(=O)c2ccc(O)c(O)c2)nc1-c1ccc(O)cc1	58.7%	–	71.9%	–
CCCCc1sc(NC(=O)c2cc(O)c(O)c(O)c2)nc1-c1ccc(O)cc1	27.3%	–	100%	–
O=C(Nc1nc(-c2ccc(O)cc2)c(Cc2ccccc2)s1)c1ccc(O)cc1O	88%	11.5%	–	–
CCCCc1sc(NC(=O)c2ccc(O)c(O)c2)nc1-c1ccc(O)cc1	0%	–	93.4%	–
Cc1sc(NC(=O)c2cc(O)c(O)c(O)c2)nc1-c1ccc(O)cc1	85.9%	–	10.7%	–
O=C(Nc1nc(-c2ccc(F)cc2)c(Cc2ccc([N+](=O)[O-])cc2)s1)c1ccc(O)c(O)c1	0%	–	100%	–
O=C(Nc1nc(-c2ccc(O)cc2)c(Cc2ccc(F)cc2)s1)c1ccc(O)c(O)c1	9.2%	–	73.2%	–
O=C(Nc1nc(-c2ccc(O)cc2)c(CC2CCCCC2)s1)c1cc(O)c(O)c(O)c1	20.9%	–	100%	–
O=C(Nc1nc(-c2ccc(O)cc2)c(CC2CCCCC2)s1)c1ccc(O)c(O)c1	6%	81.6%	–	–
O=C(Nc1nc(-c2ccc(O)cc2)c(Cc2ccc([N+](=O)[O-])cc2)s1)c1ccc(O)c(O)c1	30.4%	–	67.6%	–
